According to patent publication US8906897B2, “Antimicrobial agents based on hemin derivatives” (Obschestvo S Ogranichennoi Otvetstvennostiyu …, priority 2009, dated 2014):

Key:
Assay type in all cases: cell-based
[1] = system: Enterococcus faecalis No. 559; experiment: Specific activity against resistant bacterial strains; details: Ent. faecalis 559; 24 h, 36° C.
Method: (§1) The tested agents were water-soluble hemin derivatives (compounds VII and XVIII) or DMSO-soluble derivatives (compounds VIII, XV, and XIV). Vancomycin was the reference compound. Each compound was tested in three replicas.
(§2) Sterile single-use flat-bottomed 96-well plates, Petri dishes, pipettes, tips, and test tubes (Pan-Eco, Moscow) were used in the study.
(§3) The nutritional media used were as follows. A working Mueller Hinton broth was prepared from dry media (Mueller Hinton broth, Acumedia, Baltimore) and sterilized by autoclaving at 121° C. for 15 min.
(§4) Staphylococcus aureus was cultured on the Tripticase Soy Agar (BBL) commercially available dry medium. Enterococcus faecalis was cultured on the Columbia Agar Base (BBL) commercially available dry medium. These media were sterilized by autoclaving at 121° C. for 15 min.
(§5) Bacterial inoculum was fixed and equal to 5×10^5 CFU/mL.
(§6) For water-soluble compounds, wells from 2nd through 8th were added with the solvent (water) in an amount of 15 μL per well, then the 1st well was added with 30 μL of the stock solution of the tested compound in water with a concentration of 1×10^3M, and the concentration was adjusted to 0.007×10^3 M by serial twofold dilutions. A 10-μL portion was taken from every well, and 190 μL of the bacterial culture (10^5 CFU) was added per well.
(§7) For DMSO-soluble compounds, wells from 2nd through 8th were added with the solvent (DMSO) in an amount of 10 μL per well, then the 1st well was added with 20 μL of the stock solution of the tested compound in […] with a concentration of 5×10^3M, and the concentration was adjusted to 0.039×10^3 M by serial twofold dilutions. A 2-μL portion was taken from each well, and 198 μL of the bacterial culture (10^5 CFU) was added per well.
(§8) The control comprised wells free of tested compounds (culture growth control). In addition, purity control of nutritional media and solvents was used. Plates were incubated in a thermostat at 36° C. for 24 hours.
(§9) Culture growth was evaluated visually by comparison of how microorganisms grew in the presence of tested compounds and in the absence of them. MSC (the minimal suppressing concentration) was set equal to the last dilution of a tested agent which suppressed bacterial culture growth.

[2] = system: Staphylococcus aureus No. 25923 ATCC; experiment: as above; details: St. aureus 25923; 24 h, 36° C.
Method: as §1, §2, §3, §4, §5, §6, §7, §8, §9

[3] = system: Staphylococcus epidermidis No. 533; experiment: as above; details: St. epiderm 533; 24 h, 36° C.
Method: as §1, §2, §3, §4, §5, §6, §7, §8, §9

[4] = system: Staphylococcus aureus No. 100 KC; experiment: as above; details: St. aureus 100 KC; 24 h, 36° C.
Method: as §1, §2, §3, §4, §5, §6, §7, §8, §9

[5] = system: Enterococcus faecium No. 569; experiment: as above; details: Ent. faecium 569; 24 h, 36° C.
Cryptococcus humicolus = experiment: Antifungal activity against cryptococcosis causative agent (MSC)
Candida albicans No. 927 = experiment: Antifungal activity, culture growth with pH indicator; design: key to Test culture growth at various dilutions of the agent: (−) No growth; the indicator is blue; (±) Weak growth; the indicator is yellow, but the precipitate of grown cells looks as a diffuse spot; (+) Strong growth; the indicator is yellow, and the cell precipitate looks as a compact spot
Method: The subjects of action were Cryptococcus neoformans No. 3465 museum strain cells and Candida albicans No. 927 museum strain cells grown for one day on a glucose-peptone-yeast medium at 32° C. The reference compounds were the following antimycotics: pimafucin, amphotericin, and fluconazole.
Experiments were carried out on round-bottomed 96-well plates (Lenmedpolimer) in two replicas. To the first column (0), added was 10 μL of the stock solution of a water-soluble agent with concentrations of 10^−2 to 10^−3 mol/L; to the second column, added was also the same 10 μL plus 10 μL of the solvent corresponding to the given compound, suspended, 10 μL was transferred to the next well, and so on to the 8th well of the row. Stock solutions of water-insoluble compounds of general formula (I) (compounds V, VIII, XII, XIII, XIV, and hemin) were prepared in DMSO and were diluted with DMSO and the medium. DMSO concentrations in the reaction mixture in a well were ≦5%.
Then, to every well added was 190 μL of a Cr. neoformans cell culture suspension in a synthetic nutritional medium (so that the final cell concentration was approximately 10^3 CFU/mL), this medium containing Bromocresol Blue as a pH-indicator (pH: 5.5; indicator color: blue). As pH reduced to 4.5, the indicator in the culture changed its color to yellow, thereby indicating fungal cell growth. The synthetic medium comprised the following components: salts, amino acids, microelements, vitamins, an antibiotic, and glucose (30 components altogether) [Yarrow, D., “Methods for the Isolation, Maintenance and Identification of Yeasts,” in: The Yeasts. A Taxonomic Study, Ed. by Kurtsman, C. P, and Fell, M., Elsevier, 1998, pp. 77-100]. After being inoculated with a Cr. neoformans cell suspension, the plate was incubated at 32° C. for 1 h with stirring, then transferred to a stationary thermostat and incubated for two and five days at 27° C. After being inoculated with a C. albicans cell suspension, the plates were incubated for 1 h at 32° C. with stirring, then transferred to a stationary thermostat and incubated for one and four days at 27° C.

[6] = system: Micrococcus luteus BKM Ac-2230; experiment: Antibacterial activity (MIC/MBC), serial dilutions in liquid MH medium
Method: (§10) The antibacterial activity of compounds was determined against Bacillus subtilis BKM B-501, Staphylococcus aureus 209P, Enterococcus faecalis BKM B-871, and Micrococcus luteus BKM Ac-2230 strains (acquired from the All-Russia Collection of Microorganisms at the Institute for Biochemistry and Physiology of Microorganisms, Russian Academy of Sciences). The main parameters characterizing the antibacterial activity are the minimal inhibitory concentration (MIC) and minimal bactericidal concentration (MBC). […] MBC is the least concentration that causes the death of all cells.
(§11) MIC was quantified by inhibiting culture growth in a liquid medium with serial dilutions of compounds using a modified procedure [Amsterdam, D., “Susceptibility Testing of Antimicrobials in Liquid Media,” in Antibiotics in Laboratory Medicine, Ed. by Lorian, V., 4th ed., Baltimore: Williams and Wilkins, 1996, pp. 52-111].
(§12) Bacteria were cultured and tests were carried out on an MH liquid medium (Mueller-Hinton medium: a dry extract of beef broth, 4 g/L; starch, 1.5 g/L; casein hydrolyzate, 17.5 g/L; Sigma-Fluka Catalog No. 70192) at 37° C., 100% humidity, and under stirring. Cultures (4th through 7th receeding post-thawing) in the exponential growth phase were used for tests.
(§13) Therefore, a correction for absorption was applied in estimating the optical density of bacterial suspensions for each compound with account for its concentration in the well.
(§14) The protocol for experimental antibacterial activity determination for tested compounds was as follows. A cryovial with the test strain culture (Bacillus subtilis BKIVI B-501, Staphylococcus aureus 209P, Enterococcus faecalis BKM B-871, or Micrococcus luteus BKIVI Ac-2230) in a medium with 7% DMSO stored in liquid nitrogen, was rapidly defrosted, and 1.5 mL of the fresh MH medium was inoculated with 100 μL of the cell suspension. Cells were grown for one day at 37° C. and stirred on an orbital shaker at 150 rpm. The morphologic features of the strain and the absence of contamination with foreign bacteria were verified by: (a) inoculation on an agarized (15 g/L agar) MH medium and observation of the shape and color of the grown colonies and (b) examination of characteristic morphologic features under a microscope (Mikmed-2, LOMO, Russia) equipped with a 40× objective lens. Further bacteria were cultured in 1 mL of the liquid MH medium at 37° C. under stirring. The cells were reseeded every day. Cell cultures were used in tests starting with 3rd reseeding and ending with 6th one.
(§15) For testing, 5 μL of a bacterial suspension in the stationary growth phase was transferred to 1 mL of a sterile MH medium and incubated until the exponential growth phase was attained (3 to 5 h, 37° C., stirring at 150 rpm). To estimate the microorganisms concentration, the optical density (A) of the resulting bacterial culture was measured at a wavelength of 595 nm. The value of A=0.2 measured from a […] portion of the cell suspension in a 96-well plate, with a correction for the medium absorption applied, was set to correspond to 4×10^8 cells/mL for both strains used. Taking into account the cell concentration measurements, the suspension was diluted with the MH medium to a concentration of from 5×10^4 to 1×10^5 cells/mL and transferred to a sterile 96-well plate in an amount of 100 μL, per well. Then, the cells were added with tested compounds and twofold serial dilutions of these compounds in plate's wells were made.
(§16) The controls used were: 100 μL of an additive-free bacterial culture (four wells); a bacterial culture added with 1% DMSO or water in the same volume as in the wells with the maximal concentration of the tested compounds (four wells); and 100 μL of the sterile MH medium without bacteria and without tested compounds for control of occasional contamination in the plate (four wells).

[7] = system: Staphylococcus aureus 209P; experiment: as above
Method: as §10, §11, §12, §13, §14, §15, §16

[8] = system: Bacillus subtilis BKM B-501; experiment: as above
Method: as §10, §11, §12, §13, §14, §15, §16

[9] = system: Enterococcus faecalis BKM B-871; experiment: as above
Method: as §10, §11, §12, §13, §14, §15, §16

C=CC1=C(C)c2cc3[n-]c(cc4nc(cc5[n-]c(cc1n2)c(C)c5CCC(=O)N[C@@H](CCCNC(=N)N)C(=O)N[C@@H](CCCNC(=N)N)C(=O)OC)C(CCC(=O)N[C@@H](CCCNC(=N)N)C(=O)N[C@@H](CCCNC(=N)N)C(=O)OC)=C4C)c(C)c3C=C.[Cl-].[Fe+3] [Compound XXI, 6,7-bis[(N^α-L-Arginyl Methyl Ester)-L-Arginyl]-Protohemin IX]
MICs for hemin derivatives against Gr+ strains [1]: 50 µM | MICs for hemin derivatives against Gr+ strains [2]: 50 µM | MICs for hemin derivatives against Gr+ strains [3]: 50 µM | MICs for hemin derivatives against Gr+ strains [4]: 50 µM | MICs for hemin derivatives against Gr+ strains [5]: >50 µM

Protohemin IX 6(7)-Mono(-Val-Gly-Ala-D-Leu-Ala-D-Val-Val-D-Val-Trp-D-Leu-X-D-Leu-Trp-D-Leu-Trp-NH—CH2CH2OH)amide [Compound XII]
MSC (Cryptococcus humicolus): 12.5 µM | Test culture growth at various dilutions of the agent (Candida albicans No. 927; dilution 0: 1 × 10^−4 M): ± | Test culture growth at various dilutions of the agent (Candida albicans No. 927; dilution : 2 of 1 × 10^−4 M): ± | Test culture growth at various dilutions of the agent (Candida albicans No. 927; dilution : 4 of 1 × 10^−4 M): ± | Test culture growth at various dilutions of the agent (Candida albicans No. 927; dilution : 8 of 1 × 10^−4 M): + | Test culture growth at various dilutions of the agent (Candida albicans No. 927; dilution : 16 of 1 × 10^−4 M): + | Test culture growth at various dilutions of the agent (Candida albicans No. 927; dilution : 32 of 1 × 10^−4 M): + | Test culture growth at various dilutions of the agent (Candida albicans No. 927; dilution : 64 of 1 × 10^−4 M): + | MBC [6]: >6.3^3 μM | MIC ([6]; 20 h, MH medium): 1.6 µM | MBC [7]: >50^2 μM | MIC ([7]; 20 h, MH medium): 50 µM | MBC [8]: 38 ± 13 µM | MIC ([8]; 20 h, MH medium): 38 ± 13 µM | MBC [9]: >50^3 μM | MIC ([9]; 20 h, MH medium): 50 µM
